pIC50: −log10 of the molar value. Calls of active or inactive are those of the source. The rule behind the calls is not given here.
Key:
[1] = target: T1, Human immunodeficiency virus type 1 reverse transcriptase (Human immunodeficiency virus 1, UniProt Q72547); test: Inhibition of HIV1 recombinant reverse transcriptase by NCI assay
[2] = target: T1, Human immunodeficiency virus type 1 reverse transcriptase; test: Inhibition of HIV1 recombinant reverse transcriptase by UIC assay
[3] = species on record: Rattus norvegicus; test: Displacement of [3H]phorbol dibutyrate from rat brain membrane; assay type: tissue-based

Row | pIC50 [1] | pIC50 [2] | Activity [3] | Compound
1 | 4.40 | 4.82 |  | CC1(C)CC[C@]2(C(=O)O)CC=C3[C@]4(C)CC[C@H]5C(C)(C)[C@H](O)[C@@H](OC(=O)c6ccc(O)cc6)C[C@]5(C)[C@H]4CC[C@@]3(C)[C@H]2C1
2 | < 4.00 | 5.47 |  | CC1(C)CC[C@]2(C(=O)O)CC=C3[C@]4(C)CC[C@H]5C(C)(C)C[C@H](O)[C@@H](O)[C@]5(C)[C@H]4CC[C@@]3(C)[C@H]2C1
3 | 4.22 | 5.10 |  | CC1(C)CC[C@]2(C(=O)O)CC=C3[C@]4(C)CC[C@H]5C(C)(C)[C@@H](OC(=O)c6ccc(O)cc6)[C@H](OC(=O)c6ccc(O)cc6)C[C@]5(C)[C@H]4CC[C@@]3(C)[C@H]2C1
4 | < 4.00 | 5.43 | Active | CC1(C)CC[C@]2(C(=O)O)CC=C3[C@]4(C)CC[C@H]5C(C)(C)[C@@H](OC(=O)c6ccc(O)cc6)C[C@@H](O)[C@]5(C)[C@H]4CC[C@@]3(C)[C@H]2C1
5 | < 3.70 | 4.84 |  | CC1(C)CC[C@]2(C(=O)O)CC=C3[C@]4(C)CC[C@H]5C(C)(C)[C@@H](OC(=O)c6ccc(O)cc6)[C@H](O)C[C@]5(C)[C@H]4CC[C@@]3(C)[C@H]2C1
6 | 3.70 | 4.97 |  | CC1(C)CC[C@]2(C(=O)O)CC=C3[C@]4(C)CC[C@H]5C(C)(C)[C@@H](OC(=O)c6ccc(O)cc6)CC[C@]5(C)[C@H]4CC[C@@]3(C)[C@H]2C1
7 | 4.22 | 4.94 |  | CC1(C)CC[C@]2(C(=O)O)CC=C3[C@]4(C)CC[C@H]5C(C)(C)[C@@H](OC(=O)/C=C/c6ccc(O)cc6)CC[C@]5(C)[C@H]4CC[C@@]3(C)[C@H]2C1
8 | < 3.70 | 4.28 |  | CC1(C)CC[C@]2(C(=O)O)CC=C3[C@]4(C)CC[C@H]5C(C)(C)[C@@H](O)[C@H](OC(=O)c6ccc(O)cc6)C[C@]5(C)[C@H]4CC[C@@]3(C)[C@H]2C1
9 |  | 5.31 |  | CC1(C)CC[C@]2(C(=O)O)CC=C3[C@]4(C)CC[C@H]5C(C)(C)[C@@H](O)C[C@@H](O)[C@]5(C)[C@H]4CC[C@@]3(C)[C@H]2C1

— ChEMBL document CHEMBL1159271, “A reinvestigation of Maprounea triterpenes” (J Nat Prod, 1995)
